Data: patent publication EP4603105A1, “PHARMACEUTICAL COMPOSITION CONTAINING CYCLIC COMPOUND HAVING SELECTIVE KRAS INHIBITORY EFFECT AGAINST HRAS AND NRAS” (CHUGAI SEIYAKU KABUSHIKI KAISHA, priority 2022, dated 2024)
One block for each compound: values may come before it.

Columns and labels:
[1] = target: GDP-bound NRAS wild-type protein (Homo sapiens, UniProt P01111); assay: Binding to NRAS by surface plasmon resonance (SPR), KD and KD ratio to KRAS; settings: ratio of KD for GDP-bound NRAS wild-type protein to KD for KRAS
GDP-bound NRAS wild-type protein, sequence (P01111 whole entry): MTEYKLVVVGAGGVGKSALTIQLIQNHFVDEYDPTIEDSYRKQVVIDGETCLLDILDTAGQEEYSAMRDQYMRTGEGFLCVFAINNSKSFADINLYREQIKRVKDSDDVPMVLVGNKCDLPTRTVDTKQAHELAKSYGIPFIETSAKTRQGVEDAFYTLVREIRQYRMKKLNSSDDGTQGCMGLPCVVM
Outline: (§1)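 SPR, 30°C: Avi-biotin RAS·GDP captured via Biotin CAPture (~100–300 RU); running buffer HBS pH 7.4, 1 mM DTT, 10 mM MgCl2, 0.01% Tween 20, 10 µM GDP, 4% DMSO. Single-cycle kinetics, 100 µL/min, 75 s injections; 1:1 model → KD.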

HRAS wild-type protein = HRAS wild-type protein (Homo sapiens, UniProt P01112); assay: Binding to HRAS by surface plasmon resonance (SPR), KD and KD ratio to KRAS; settings: ratio of KD for HRAS wild-type protein to KD for KRAS
HRAS wild-type protein, sequence (P01112 whole entry): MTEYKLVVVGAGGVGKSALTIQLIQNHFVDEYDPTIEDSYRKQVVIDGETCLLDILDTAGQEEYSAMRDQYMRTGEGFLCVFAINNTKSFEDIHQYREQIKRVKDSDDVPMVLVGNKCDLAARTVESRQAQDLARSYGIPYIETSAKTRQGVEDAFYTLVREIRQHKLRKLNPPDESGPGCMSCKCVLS
Outline: as §1

[2] = tested on: human lung cancer strain NCI-H441; type: cell-based
Outline: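 Proliferation was scored by […] measured after the reagent was added to cultures kept at 37°C in 5% carbon dioxide.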

Structure (SMILES): CCC[C@H]1C(=O)N[C@@H]([C@@H](C)CC)C(=O)N(C)CC(=O)N(C)[C@H]2C/C=C\CCN(C2=O)[C@@H](Cc2ccc(C)cc2)C(=O)N(C)CC(=O)N[C@@H](CCc2ccc(C(F)(F)F)c(OC)c2)C(=O)N2C[C@H](OCC)C[C@H]2C(=O)N(C)C2(CCC2)C(=O)N(C)[C@@H](C2CCCC2)C(=O)N(C)[C@H](C(=O)N2CCCCC2)CC(=O)N1C [PP3104]
NRAS /KRAS [1]: A (a compound having 10 or more and less than 20 is denoted as A) | HRAS /KRAS (HRAS wild-type protein): A (a compound having 10 or more and less than 20 is denoted as A) | IC50 [2]: 3.8 nM

Structure (SMILES): CCC[C@H]1C(=O)N[C@@H]([C@@H](C)CC)C(=O)N(C2CC2)CC(=O)N(C)[C@H]2C/C=C\CCN(C2=O)[C@@H](Cc2ccc(C(F)(F)F)cc2)C(=O)N(C)CC(=O)N[C@@H](CCc2cc(F)c(C(F)(F)F)c(F)c2)C(=O)N2C[C@H](OCC)C[C@H]2C(=O)N(C)C2(CCC2)C(=O)N(C)[C@@H](C2CCCC2)C(=O)N(C)[C@H](C(=O)N2CCCCC2)CC(=O)N1C [PP3110]
NRAS /KRAS [1]: A (a compound having 10 or more and less than 20 is denoted as A) | HRAS /KRAS (HRAS wild-type protein): A (a compound having 10 or more and less than 20 is denoted as A) | IC50 [2]: 69.9 nM

Structure (SMILES): CCC[C@H]1C(=O)N[C@@H]([C@@H](C)CC)C(=O)N(C2CC2)CC(=O)N(C)[C@H]2C/C=C\CCN(C2=O)[C@@H](Cc2ccc(C)cc2)C(=O)N(C)CC(=O)N[C@@H](CCc2cc(F)c(C(F)(F)F)c(F)c2)C(=O)N2C[C@H](OCC)C[C@H]2C(=O)N(C)C2(CCC2)C(=O)N(C)[C@@H](C2CCCC2)C(=O)N(C)[C@H](C(=O)N2CCCCC2)CC(=O)N1C [PP3111]
NRAS /KRAS [1]: A (a compound having 10 or more and less than 20 is denoted as A) | HRAS /KRAS (HRAS wild-type protein): A (a compound having 10 or more and less than 20 is denoted as A) | IC50 [2]: 17.8 nM

Structure (SMILES): CCC[C@H]1C(=O)N[C@@H]([C@@H](C)CC)C(=O)N(C2CC2)CC(=O)N(C)[C@H]2C/C=C\CCN(C2=O)[C@@H](Cc2ccc(C)cc2)C(=O)N(C)CC(=O)N[C@@H](CCc2cc(F)c(C(F)(F)F)c(F)c2)C(=O)N2C[C@H](OCC)C[C@H]2C(=O)N(C)C2(CCC2)C(=O)N(C)[C@@H](C2CCCC2)C(=O)N(C)[C@H](C(=O)N2CCCC2)CC(=O)N1C [PP3113]
NRAS /KRAS [1]: A (a compound having 10 or more and less than 20 is denoted as A) | HRAS /KRAS (HRAS wild-type protein): A (a compound having 10 or more and less than 20 is denoted as A) | IC50 [2]: 6.1 nM

Structure (SMILES): CCC[C@H]1C(=O)N[C@@H]([C@@H](C)CC)C(=O)N2CCC[C@H]2C(=O)N(C)[C@H]2C/C=C\CCN(C2=O)[C@@H](Cc2ccc(C(F)(F)F)cc2)C(=O)N(C)CC(=O)N[C@@H](CCc2cc(F)c(C(F)(F)F)c(F)c2)C(=O)N2C[C@H](OCC)C[C@H]2C(=O)N(C)C2(CCC2)C(=O)N(C)[C@@H](C2CCCC2)C(=O)N(C)[C@H](C(=O)N2CCCCC2)CC(=O)N1C [PP3114]
NRAS /KRAS [1]: AA (a compound having 20 or more is denoted as AA) | HRAS /KRAS (HRAS wild-type protein): A (a compound having 10 or more and less than 20 is denoted as A) | IC50 [2]: 14.7 nM

Structure (SMILES): CCC[C@H]1C(=O)N[C@@H]([C@@H](C)CC)C(=O)N2CCC[C@H]2C(=O)N(C)[C@H]2C/C=C\CCN(C2=O)[C@@H](Cc2ccc(C)cc2)C(=O)N(C)CC(=O)N[C@@H](CCc2cc(F)c(C(F)(F)F)c(F)c2)C(=O)N2C[C@H](OCC)C[C@H]2C(=O)N(C)C2(CCC2)C(=O)N(C)[C@@H](C2CCCC2)C(=O)N(C)[C@H](C(=O)N2CCCCC2)CC(=O)N1C [PP3115]
NRAS /KRAS [1]: A (a compound having 10 or more and less than 20 is denoted as A) | HRAS /KRAS (HRAS wild-type protein): B (a compound having 3 or more and less than 10 is denoted as B) | IC50 [2]: 5.7 nM

Structure (SMILES): CCC[C@H]1C(=O)N[C@@H]([C@@H](C)CC)C(=O)N(C)CC(=O)N(C)[C@H]2C/C=C\CCN(C2=O)[C@@H](Cc2ccc(C(F)(F)F)cc2)C(=O)N(C)CC(=O)N[C@@H](CCc2cc(F)c(C(F)(F)F)c(F)c2)C(=O)N2C[C@H](OCC)C[C@H]2C(=O)N(C)C2(CCC2)C(=O)N(C)[C@@H](C2CCCC2)C(=O)N(C)[C@H](C(=O)N2CCCCC2)CC(=O)N1C [PP3118]
NRAS /KRAS [1]: A (a compound having 10 or more and less than 20 is denoted as A) | HRAS /KRAS (HRAS wild-type protein): B (a compound having 3 or more and less than 10 is denoted as B) | IC50 [2]: 6.7 nM

Continued, in another order:

IC50 [2]: 4.9 nM
Structure (SMILES): CCC[C@H]1C(=O)N[C@@H]([C@@H](C)CC)C(=O)N2CCC[C@H]2C(=O)N(C)[C@H]2C/C=C\CCN(C2=O)[C@@H](Cc2ccc(C(F)(F)F)cc2)C(=O)N(C)CC(=O)N[C@@H](CCc2ccc(C(F)(F)F)c(OC)c2)C(=O)N2C[C@H](OCC)C[C@H]2C(=O)N(C)C2(CCC2)C(=O)N(C)[C@@H](C2CCCC2)C(=O)N(C)[C@H](C(=O)N2CCCC2)CC(=O)N1C [PP3101]
NRAS /KRAS [1]: A (a compound having 10 or more and less than 20 is denoted as A) | HRAS /KRAS (HRAS wild-type protein): A (a compound having 10 or more and less than 20 is denoted as A)

IC50 [2]: 6.7 nM
Structure (SMILES): CCC[C@H]1C(=O)N[C@@H]([C@@H](C)CC)C(=O)N2CCC[C@H]2C(=O)N(C)[C@H]2C/C=C\CCN(C2=O)[C@@H](Cc2ccc(C)cc2)C(=O)N(C)CC(=O)N[C@@H](CCc2ccc(C(F)(F)F)c(OC)c2)C(=O)N2C[C@H](OCC)C[C@H]2C(=O)N(C)C2(CCC2)C(=O)N(C)[C@@H](C2CCCC2)C(=O)N(C)[C@H](C(=O)N2CCCC2)CC(=O)N1C [PP3102]
NRAS /KRAS [1]: A (a compound having 10 or more and less than 20 is denoted as A) | HRAS /KRAS (HRAS wild-type protein): A (a compound having 10 or more and less than 20 is denoted as A)

IC50 [2]: 2.5 nM
Structure (SMILES): CCC[C@H]1C(=O)N[C@@H]([C@@H](C)CC)C(=O)N(C)CC(=O)N(C)[C@H]2C/C=C\CCN(C2=O)[C@@H](Cc2ccc(C(F)(F)F)cc2)C(=O)N(C)CC(=O)N[C@@H](CCc2ccc(C(F)(F)F)c(OC)c2)C(=O)N2C[C@H](OCC)C[C@H]2C(=O)N(C)C2(CCC2)C(=O)N(C)[C@@H](C2CCCC2)C(=O)N(C)[C@H](C(=O)N2CCCC2)CC(=O)N1C [PP3105]
NRAS /KRAS [1]: AA (a compound having 20 or more is denoted as AA) | HRAS /KRAS (HRAS wild-type protein): A (a compound having 10 or more and less than 20 is denoted as A)

IC50 [2]: 2.9 nM
Structure (SMILES): CCC[C@H]1C(=O)N[C@@H]([C@@H](C)CC)C(=O)N(C)CC(=O)N(C)[C@H]2C/C=C\CCN(C2=O)[C@@H](Cc2ccc(C)cc2)C(=O)N(C)CC(=O)N[C@@H](CCc2ccc(C(F)(F)F)c(OC)c2)C(=O)N2C[C@H](OCC)C[C@H]2C(=O)N(C)C2(CCC2)C(=O)N(C)[C@@H](C2CCCC2)C(=O)N(C)[C@H](C(=O)N2CCCC2)CC(=O)N1C [PP3106]
NRAS /KRAS [1]: A (a compound having 10 or more and less than 20 is denoted as A) | HRAS /KRAS (HRAS wild-type protein): A (a compound having 10 or more and less than 20 is denoted as A)

IC50 [2]: 9250 nM
Structure (SMILES): CC[C@H](C)[C@@H]1NC(=O)[C@H](CC(C)C)N(C)C(=O)CSC[C@H](C(=O)N(C)C)N(C)C(=O)[C@H](C2CCCC2)N(C)C(=O)C2(CCCC2)NC(=O)[C@@H]2CCCN2C(=O)[C@@H](CCc2cc(F)c(C(F)(F)F)c(F)c2)NC(=O)CN(C)C(=O)[C@H](Cc2ccc(C(F)(F)F)cc2)N2CC=CC[C@@H](C2=O)N(C)C(=O)CN(C)C1=O [PP3108]
NRAS /KRAS [1]: C (A compound having a KD ratio of 0.1 or more and less than 3 is denoted as C) | HRAS /KRAS (HRAS wild-type protein): B (a compound having 3 or more and less than 10 is denoted as B)

IC50 [2]: 32.4 nM
Structure (SMILES): CCC[C@H]1C(=O)N[C@@H]([C@@H](C)CC)C(=O)N(C2CC2)CC(=O)N(C)[C@H]2C/C=C\CCN(C2=O)[C@@H](Cc2ccc(C(F)(F)F)cc2)C(=O)N(C)CC(=O)N[C@@H](CCc2cc(F)c(C(F)(F)F)c(F)c2)C(=O)N2C[C@H](OCC)C[C@H]2C(=O)N(C)C2(CCC2)C(=O)N(C)[C@@H](C2CCCC2)C(=O)N(C)[C@H](C(=O)N2CCCC2)CC(=O)N1C [PP3112]
NRAS /KRAS [1]: A (a compound having 10 or more and less than 20 is denoted as A) | HRAS /KRAS (HRAS wild-type protein): B (a compound having 3 or more and less than 10 is denoted as B)

IC50 [2]: 7.8 nM
Structure (SMILES): CCC[C@H]1C(=O)N[C@@H]([C@@H](C)CC)C(=O)N2CCC[C@H]2C(=O)N(C)[C@H]2C/C=C\CCN(C2=O)[C@@H](Cc2ccc(C(F)(F)F)cc2)C(=O)N(C)CC(=O)N[C@@H](CCc2cc(F)c(C(F)(F)F)c(F)c2)C(=O)N2C[C@H](OCC)C[C@H]2C(=O)N(C)C2(CCC2)C(=O)N(C)[C@@H](C2CCCC2)C(=O)N(C)[C@H](C(=O)N2CCCC2)CC(=O)N1C [PP3116]
NRAS /KRAS [1]: A (a compound having 10 or more and less than 20 is denoted as A) | HRAS /KRAS (HRAS wild-type protein): A (a compound having 10 or more and less than 20 is denoted as A)

IC50 [2]: 2.6 nM
Structure (SMILES): CCC[C@H]1C(=O)N[C@@H]([C@@H](C)CC)C(=O)N2CCC[C@H]2C(=O)N(C)[C@H]2C/C=C\CCN(C2=O)[C@@H](Cc2ccc(C)cc2)C(=O)N(C)CC(=O)N[C@@H](CCc2cc(F)c(C(F)(F)F)c(F)c2)C(=O)N2C[C@H](OCC)C[C@H]2C(=O)N(C)C2(CCC2)C(=O)N(C)[C@@H](C2CCCC2)C(=O)N(C)[C@H](C(=O)N2CCCC2)CC(=O)N1C [PP3117]
NRAS /KRAS [1]: A (a compound having 10 or more and less than 20 is denoted as A) | HRAS /KRAS (HRAS wild-type protein): A (a compound having 10 or more and less than 20 is denoted as A)
